Test results as given in patent publication US20190000789A1, “COMPOSITION AND METHOD FOR TREATING INFECTIONS CAUSED BY VANCOMYCIN-RESISTANT INFECTIOUS AGENTS IN A SUBJECT” (priority 2015, published 2019).

Legend:
Assay type in all cases: cell-based, Streptomyces coelicolor
S. coelicolor LAG2 = test: LC-MS analysis of peptidoglycan precursors, including time course after alanine addition
Procedure: In order to get more insights into the synthesis of vancomycin-sensitive (i.e., wild-type) or the alternate vancomycin-resistant peptidoglycan, the pool of peptidoglycan precursors was analyzed by Liquid Chromatography coupled to Mass Spectrometry (LC-MS). When cells produce wild-type PG, only the MurNac-pentapeptide with a D-Ala-D-Ala terminus are detected, while vancomycin-resistant PG precursors have a D-Ala-D-Lac terminus. To analyze the precursors produced in S. coelicolor M145 and its mutant derivatives LAG1 (Δddl) and LAG2 (Δddl vanS::IS466A) in the presence or absence of vancomycin, the strains were grown until exponential phase, after which the cultures were harvested, washed and the precursors extracted with 5% TCA. The supernatants were desalted, concentrated and analyzed by LC-MS (see Materials and Methods section).
(§1) To investigate what the effect would be of the addition of excess of D-Ala on the accumulation of wild-type precursors, a time-course experiment was performed to follow the effect of D-Ala addition on the ratio between wild-type and resistant precursors. Therefore, 300 ml liquid-grown NMMP cultures were supplemented with either D-Ala or L-Ala (control) at 50 mM end concentration, and 10 ml samples were collected prior to and 1, 5, 15, 30, 60, 120 and 180 minutes after the addition of either alanine stereoisomer. Samples were immediately filtered by vacuum filtration, washed in 0.9% NaCl, biomass scraped off the filter, added to a tube containing 5% TCA and samples prepared as described above. […] However, addition of 50 mM D-Ala triggered the production of small amounts of wt precursor (1%) within 1 minute. After 15 minutes, this amount had increased to 4%, which appeared to be close to the maximum, with levels of wt precursors never exceeding 5%.
(§2) For the precursor isolation and identification, a modification of the method described previously by Hong and colleagues (Hong et al., 2004) was used. 10 μg vancomycin was added to the strains at the moment of inoculation. The strains were grown in NMMP (1% (w/v) Mannitol, 50 mM MgCl2) until mid-log phase (OD-0.3-0.4) and mycelia were harvested by centrifugation at 4° C. and washed in 0.9% NaCl. The mycelium was extracted with 5% cold trichloric acid (TCA) for 30 minutes at 4° C. This was centrifuged and the supernatant desalted on a Sephadex G-25 column (Illustra NAP-10 Columns, GE Healthcare, Pittsburgh), and concentrated by rotary evaporation. The concentrated precursors were dissolved in HPLC-grade water and separated by LC-MS using a gradient of 0-20% acetonitrile in water with 0.1% TFA. The elution was monitored at 254 nm and monitored by the sizes eluted (1193.8-1195.3).
For the measurement over time, the protocol was adjusted in the following way: 300 ml NMMP cultures were grown until exponential phase, at which point a 10 ml sample was taken (sample t=0) and 50 mM of D-Ala or L-Ala was added, followed by further sampling after 1, 5, 15, 30, 60, 120 and 180 minutes. Samples were rapidly filtered with a vacuum pump and washed with 0.9% (w/v) NaCl, mycelia scraped off the filter and transferred to 5% TCA.

[1] = tested on: S. coelicolor M145 ΔvanX (LAG3); test: MIC of vancomycin on MM agar plates with added D-Ala; conditions: M145 ΔvanX, 1000-fold lower D-Ala concentration than for M145
Excerpt: VanX effectively eradicates the D-Ala-D-Ala dipeptide, thereby counteracting the accumulation of wild-type precursors and supporting vancomycin resistance (Lessard and Walsh, 1999; Tan et al., 2002). Therefore, a vanX null mutant was created using a similar strategy as for ddl, replacing the coding region of vanX by the apramycin resistance cassette aacC4. The mutant was created in both the parental strain S. coelicolor M145 and in its ddl suppressor mutant LAG2, generating LAG3 (M145 ΔvanX) and LAG4 (M145 Δddl ΔvanX vanS::IS466A), respectively.
LAG4 produced 20% wt precursors prior to the addition of D-Ala.
(§3) Escherichia coli strains JM109 (Sambrook et al., 1989) and ET12567 (Kieser et al., 2000) were used for routine cloning procedures and for extracting non-methylated DNA, respectively. Cells of E. coli were grown in Luria-Berani broth (LB) at 37° C. Streptomyces coelicolor A3(2) M145 was the parent of all mutants described in this work. All media and routine Streptomyces techniques were carried out as described (Kieser et al., 2000). SFM (soy flour mannitol) agar plates were used for propagating S. coelicolor strains and to prepare spore suspensions. For liquid-grown cultures, S. coelicolor mycelia were grown in normal minimal media with phosphate (NMMP) supplemented with 1% (w/v) mannitol as the sole carbon source. The MIC of vancomycin against S. coelicolor M145 and its mutant derivatives were determined by growth on minimal media (MM) agar plates supplemented with 1% mannitol as the sole carbon source, and 0, 2, 4, 8, 16, 32, 64, 128, 256 or 512 μg/ml vancomycin, in combination with 0, 1, 5, 10 or 50 mM of D-Ala or L-Ala. The vanX deletion mutants have been tested with 1, 5, 10, 50 and 100 μM D-Ala and L-Ala.

[2] = tested on: S. coelicolor LAG4 (LAG2 ΔvanX); test: LC-MS analysis of peptidoglycan precursors, time course after D-Ala addition
Procedure: as §1
as §2, with “(1193.8-1195.3). […]” for “(1193.8-1195.3).”

[3] = tested on: S. coelicolor LAG2 (ddl suppressor mutant); test: MIC of vancomycin on MM agar plates with added D-Ala or L-Ala; conditions: LAG2, L-Ala (control)
Procedure: VanS is the sensory kinase of a two-component system formed with VanR, and it has been shown previously that certain mutations in vanS will constitutively upregulate the vancomycin resistance cluster, explaining the viability of strain LAG2 in the absence of vancomycin.
as §3

S. coelicolor M145 = test: as above; conditions: M145, up to 50 mg/ml L-Ala (control)
Procedure: The naturally vancomycin-resistant model organism S. coelicolor M145 was used as the initial test system. The strain was grown on solid minimal medium (MM) agar plates with increasing amounts of D-Ala and vancomycin. D-Ala was thereby added in concentrations of 5, 10 and 50 mM and the effect on the MIC of vancomycin assessed. As a first control, L-Ala was added and, as a second control, no amino acids were added. […] This was not altered when the culture media were supplemented with up to 50 mg/ml L-Ala (Table 1 and FIG. 6).
as §3

Q: `C[C@@H](N)C(=O)O` [D-Ala, D-alanine] was tested. Which wt precursor (S. coelicolor LAG2; LAG2, 50 mM D-Ala, after 15 minutes) did it give?
A: 4%

Q: What about the “wt precursor, maximum level” value (S. coelicolor LAG2; LAG2, 50 mM D-Ala, up to 180 minutes) of the same compound?
A: ≤ 5%

Q: And the wt precursor (S. coelicolor LAG2; LAG2, 50 mM D-Ala, within 1 minute)?
A: 1%

Q: What about the “stronger reduction of the MIC of vancomycin as compared to M145” value [1] of the same compound?
A: 4 fold

Q: What about the wild-type precursor ([2]; LAG4, 3 hours after addition of D-Ala) of the same compound?
A: 80%

Q: And the wild-type precursor ([2]; LAG4, after addition of D-Ala, 1 and 5 minutes)?
A: 25%

Q: What about the wild-type precursor ([2]; LAG4, after addition of D-Ala, 15-30 minutes) of the same compound?
A: 40%

Q: What does the source list for `C[C@H](N)C(=O)O` [L-Ala]?
A: production of wt precursors (S. coelicolor LAG2; LAG2, 50 mM L-Ala (control)): did not activate the production of detectable levels; effect of L-Ala on the MIC for vancomycin [3]: did not affect the MIC; effect of L-Ala on the MIC of vancomycin (S. coelicolor M145): not altered
